Measurements reported in patent US20110014164A1, “EFFICIENT INDUCTION OF PLURIPOTENT STEM CELLS USING SMALL MOLECULE COMPOUNDS” (PRESIDENT AND FELLOWS OF HARVARD COLLEGE, priority 2008, published 2011).

Experiments:
[1] = tested on: uninfected MEFs; assay: Oct4-GFP induction in uninfected MEFs; format: cell-based, mouse; conditions: VPA treatment alone on uninfected MEFs
From the text: (§1) Therefore, VPA partially reprograms MEFs towards more ES cell-like.

[2] = Effect of VPA treatment on cell cycles; format: cell-based
From the text: as §1

[3] = tested on: iPS-m cell lines; assay: Karyotype (chromosome) analysis of iPS-m cell lines induced by VPA treatment; format: cell-based, mouse
From the text: Supplementary FIG. 4. Chromosome analysis of iPS-m cells. […] Shown here is a representative chromosome analysis image from iPS-m84.
as §1

[4] = tested on: MEFs infected with the four factors (Oct4, Sox2, Klf4 and c-Myc); assay: GFP positive iPS colony number in 4-factor infected MEFs; format: cell-based, mouse
Description: FIG. 1(c) Representative pictures at 11 days post-infection showing a significant increase of GFP positive iPS colonies in infected MEFs with VPA treatment compared to non-treated control.
Consistent with the FACS data, GFP positive iPS colonies emerge sooner and in greater numbers with VPA treatment. […] GFP positive colonies only start to emerge after 10 days post-infection in untreated cells.
For the generation of mouse iPS cells, infected MEFs were cultured in mouse ES cell media until iPS colonies were ready to be picked. In some experiments, knockout serum replacement was used instead of the Hyclone FBS in the mouse ES cell media, which appeared to accelerate the reprogramming process, consistent with a recent report^26. Chemical treatment started 1 or 2 days post-infection and lasted for a week in general. iPS colonies were picked between 9-21 days post-infection based on GFP expression and colony morphology. The picked colonies were then expanded and maintained on irradiated MEF feeder layers in mouse ES cell media.

[5] = tested on: uninfected MEFs; assay: Microarray analysis on uninfected MEFs treated with VPA; format: cell-based, mouse
From the text: (a) Genes that were specifically expressed in ES cells and MEFs (>10 fold difference) were selected, and scatter plot was generated to visualize the effect of VPA treatment on the expression of these genes. Each blue dots represent one gene, and the position of the blue dot indicate the relative expression level, the average signal (AVE_signal), in MEFs treated with VPA versus untreated. The thick red line indicates identical expression levels. The two adjacent red lines indicate positions where VPA treatment causes a two fold up or down-regulation of the gene expression.
(b) Examples of the relative levels of expression of ES cell-specific transcripts (Rex3 and Zfp7) in ES cells, iPS-m cells, untreated MEFs and MEFs treated with VPA.
(c) Examples of the relative levels of expression of MEF-specific transcripts (Aspn and Meox2) in ES cells, iPS-m cells, untreated MEFs and MEFs treated with VPA.
as §1
For transcriptional analysis, total RNA was isolated from cells cultured in 6 well dishes using RNeasy Mini Kit and QlAshredder from Qiagen. Biotinylated antisense RNA were amplified using Illumina Total Prep RNA amplification Kit from Ambion, hybridized to Illumina Whole-Genome Expression BeadChips (MouseRef-8) and analyzed by Illumina Beadstation 500. All samples were prepared in two to three biological repeats. Data were analyzed using the Beadstudio software provided by Illumina.

[6] = tested on: MEFs infected with the four factors (Oct4, Sox2, Klf4 and c-Myc); format: cell-based, mouse; conditions: 2 mM; 4-factor infected MEFs
Description: FIG. 1(a) MEFs infected with the four factors (Oct4, Sox2, Klf4 and c-Myc) were treated with various chemicals for a week, the percentage of Oct4-GFP positive cells induced was measured through FACS analysis, and compared to infected MEFs without treatment or treated with DMSO (the solvent for Dexamethasone, SAHA and TSA). The chemicals used were: 5′-azaC (2 μM), dexamethasone (dex, 1 μM), 5′-azaC (2 μM) together with dexamethasone (1 μM), VPA (2 mM), SAHA (5 μM) and TSA (20 nM). n=4 for each treatment. For all figures in this study, standard deviations are indicated by error bars, and P values by two-tailed student t-test less than 0.05, 0.01 and 0.001 are indicated by one, two and three asterisks respectively.
To quantitate reprogramming efficiency, we established an assay based on Fluorescence-Activated Cell Sorting (FACS) analysis using an Oct4-GFP transgenic reporter, where the expression of the green fluorescent protein (GFP) is controlled by the promoter and enhancers of Oct4, a pluripotent marker gene^14.
MEFs were derived from e13.5 embryos hemizygous for the Oct4-GFP transgenic allele. Embryos were sexed by inspecting gonads for the pattern of Oct4-GFP expression. Gonads and internal organs were removed before processing the embryos for MEF isolation. To generate iPS cells that can be identified in mouse chimeras after blastocyst injection, we derived MEFs from e13.5 embryos that are hemizygous for Oct4-GFP and heterozygous for the Rosa26-lacZ reporter allele. MEFs were grown in DMEM supplemented with 10% FBS, L-glutamine, penicillin/streptoMycin, nonessential amino acids, and sodium pyruvate. MEFs in early passages (up to passage 5) were used for generation of iPS cells.
Moloney-based retroviral vector (pMXs) containing the murine complementary DNAs of Oct4, Sox2, c-Myc, and Klf4 were obtained from Addgene^1. These plasmids were co-transfected into 293T cells with packaging vectors (pUMVC and pCMV-VSVG), and viral supernatants were collected 48 hours post-transfection to infect MEFs. Two to three rounds of infection were performed during a 48 hour period. The first day after viral supernatants were removed was defined as 0 day post-infection. Infected MEFs were subsequently cultured in mouse ES cell media (Knockout DMEM supplemented with 15% Hyclone FBS, L-glutamine, penicillin/streptoMycin, nonessential amino acids, β-mercaptoethanol, and with 1000 U/ml LIF), and treated with small molecules or growth factors for a week starting from 1 or 2 days post-infection. […] All conditions were tested in quadruplicates.

[7] = uninfected MEFs, 2 mM VPA for a week

CCCC(CCC)C(=O)O [VPA, valproic acid]
induction of Oct4-GFP positive cells [1]: does not induce Oct4-GFP positive cells | effect on cell cycles [2]: does not accelerate cell cycles | iPS-m cell lines with normal karyotypes ([3]; iPS-m81, 82, 83 and 84 induced by VPA treatment): Three out of four | genetic changes at the level of chromosomal abnormalities ([3]; iPS-m cell lines induced with VPA (Table 1)): Nor does VPA treatment cause detectable genetic changes | average number of GFP positive colonies ([4]; 8 days post-infection, out of 270,000 cells seeded, no colonies without chemical treatment): 241 colonies | difference in colony number, treated versus non-treated ([4]; two weeks post-infection): more than 40 fold | expression of ES cell-specific genes Rex3 and Zfp7 ([5]; MEFs treated with VPA versus untreated MEFs): up-regulated by more than twenty fold | expression of MEF-specific genes Aspn and Meox2 ([5]; VPA treated MEFs versus untreated MEFs): down-regulated by more than twenty fold | effect on endogenous c-Myc gene expression [5, 7]: did not have a significant effect | share of the 214 genes down-regulated >10 fold in ES cells that are down-regulated by more than two fold [5, 7]: 55% | share of the 214 genes down-regulated >10 fold in ES cells that are up-regulated by more than two fold [5, 7]: 6.2% | share of the 968 genes up-regulated >ten fold in ES cells that are down-regulated by more than two fold [5, 7]: 4.5% | share of the 968 genes up-regulated >ten fold in ES cells that are up-regulated by more than two fold [5, 7]: 66% | improvement over the non-treated control [6]: more than 100 fold
